Assay results: PMC6731595, “The anti-parasitic agent suramin and several of its analogues are inhibitors of the DNA binding protein Mcm10” (Open Biology, 2019)
Entries after “also recorded” stand apart in the source; their conditions may differ. Counter-ions that a name gives are not always drawn.

Legend:
[1] = target: T1, Xenopus internal domain Mcm10 (xMcm10-ID) (Xenopus laevis, UniProt Q5EAW4); experiment: Fluorescence polarization HTS and dose-response assay, 5′-6FAM probe binding to xMcm10-ID; conditions: dose-response with repurchased or purchased compound
T1 construct: xMcm10-ID (amino acid residues 229 to 427); 6xHis (HRV 3C site) (N, cleaved yes); made in house; host or cells: E. coli BL21(DE3)
T1 sequence (Q5EAW4 229-427): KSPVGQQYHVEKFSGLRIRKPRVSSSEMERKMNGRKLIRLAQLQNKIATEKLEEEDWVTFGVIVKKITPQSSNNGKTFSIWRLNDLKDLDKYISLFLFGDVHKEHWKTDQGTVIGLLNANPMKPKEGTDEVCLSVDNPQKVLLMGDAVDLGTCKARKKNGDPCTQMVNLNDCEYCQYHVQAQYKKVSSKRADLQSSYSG
Description: (§1) A fluorescence polarization (FP) HTS assay was established to detect inhibitors of the binding of the 5′-6FAM 10-mer oligo probe to Mcm10. Test compounds dissolved in DMSO were added to 384-well plates (Corning 4514) using an Echo 550 acoustic dispenser (final DMSO 0.1%) to achieve a final single point screening concentration of 10 µM. Then 10 µl of 2× Xenopus internal domain Mcm10 (xMcm10-ID, final concentration 2 µM) in binding buffer (20 mM Tris HCl, 100 mM NaCl, 5% glycerol, and 0.01% triton, pH 7.5) was added using the Combi nL Multidrop dispenser. Finally, 10 µl of 2× 5′-6FAM DNA (final 12.5 nM) in binding buffer was added using the Multidrop. DMSO (0.1%, high signal) and probe only (low signal) controls were included on every plate. Plates were mixed for 2 min, incubated for 60 min at RT in the dark, and read on a CLARIOstar multimode plate reader (excitation: 482-16, emission: 530-40, dichroic filter: LP504).
(§2) The LOPAC pilot screen identified the sulfhydryl reagent 4-chloromercuribenzoic acid as an inhibitor in the fluorescence polarization (FP) assay. As there was no known Mcm10 inhibitor, 4-chloromercuribenzoic acid (30 μM) was used as a positive control on initial screening plates. Following the discovery of suramin as a Mcm10 inhibitor, suramin (7 μM) was used as a positive control on subsequent screening plates. To confirm activity, screening hits were tested in dose response experiments (8 concentrations in duplicate) using xMcm10-ID. Similar dose response experiments were conducted with suramin and its analogs to confirm activity for hMcm10-ID (1 μM) and xMcm10-FL (2 μM) and to determine selectivity relative to RPA70AB (0.4 μM). Saturation experiments for each protein were conducted using increasing concentrations of protein with a fixed probe concentration (12.5 nM). FP was measured in mP units, and ∆mP values for each well were calculated as the difference between the measured mP and the average of the “probe only” controls. […] The parallel and perpendicular mP values were also used to calculate total fluorescence intensity (TFI) determined by the sum of parallel mP + (2 x perpendicular mP). TFI was used to detect fluorescence interference by compounds [1]. […] IC50 values were calculated using the four parameter logistic equation in Prism 6.0 (GraphPad). Ki values were obtained using an online Ki calculator according to the equations of Nikolovska-Coleska (http://sw16.im.med.umich.edu/soft-ware/calc_ki/). KD values were calculated using the one site or two site binding equations in Prism 6.0 (GraphPad).

[2] = tested on: HCT116 cells; experiment: CellTiter-Glo cell viability assay, HCT116; assay type: cell-based, human; conditions: for IC50: Homo sapiens, HCT-116, 96 h, 4 days, intracellular ATP, mean ± s.e.m., n = 3
Description: Cells were cultured at 37°C and 5% CO2. […] Cells were allowed to grow for 4 days in inhibitor containing medium and cell viability was measured with the CellTiter-Glo Luminescent Cell Viability Assay (Promega G7572) following the manufacturer's instructions. Viability of each drug treatment condition was normalized to the untreated control for each cell line and fitted to the sigmoidal dose–response variable slope four parameter equation in GraphPad Prism 6.0.

[3] = target: T2, full-length Xenopus Mcm10 (xMcm10-FL) (Xenopus laevis, UniProt Q5EAW4); experiment: Fluorescence polarization competition assay, displacement of 5′-6FAM ssDNA probe from xMcm10-FL; assay type: binding; conditions: for activity at xMcm10-FL (result in words): FP displacement curves, figure S3; for Ki: averages of n = 2, xMcm10-FL 2 μM
T2 construct: The full-length xMcm10 was expressed with MBP fused onto the N-terminus and 6x-His tag attached to the C-terminus; 6xHis (C); made in house; host or cells: E. coli BL21(DE3), as for the ID constructs ('as described above')
T2 sequence (Q5EAW4 1-860): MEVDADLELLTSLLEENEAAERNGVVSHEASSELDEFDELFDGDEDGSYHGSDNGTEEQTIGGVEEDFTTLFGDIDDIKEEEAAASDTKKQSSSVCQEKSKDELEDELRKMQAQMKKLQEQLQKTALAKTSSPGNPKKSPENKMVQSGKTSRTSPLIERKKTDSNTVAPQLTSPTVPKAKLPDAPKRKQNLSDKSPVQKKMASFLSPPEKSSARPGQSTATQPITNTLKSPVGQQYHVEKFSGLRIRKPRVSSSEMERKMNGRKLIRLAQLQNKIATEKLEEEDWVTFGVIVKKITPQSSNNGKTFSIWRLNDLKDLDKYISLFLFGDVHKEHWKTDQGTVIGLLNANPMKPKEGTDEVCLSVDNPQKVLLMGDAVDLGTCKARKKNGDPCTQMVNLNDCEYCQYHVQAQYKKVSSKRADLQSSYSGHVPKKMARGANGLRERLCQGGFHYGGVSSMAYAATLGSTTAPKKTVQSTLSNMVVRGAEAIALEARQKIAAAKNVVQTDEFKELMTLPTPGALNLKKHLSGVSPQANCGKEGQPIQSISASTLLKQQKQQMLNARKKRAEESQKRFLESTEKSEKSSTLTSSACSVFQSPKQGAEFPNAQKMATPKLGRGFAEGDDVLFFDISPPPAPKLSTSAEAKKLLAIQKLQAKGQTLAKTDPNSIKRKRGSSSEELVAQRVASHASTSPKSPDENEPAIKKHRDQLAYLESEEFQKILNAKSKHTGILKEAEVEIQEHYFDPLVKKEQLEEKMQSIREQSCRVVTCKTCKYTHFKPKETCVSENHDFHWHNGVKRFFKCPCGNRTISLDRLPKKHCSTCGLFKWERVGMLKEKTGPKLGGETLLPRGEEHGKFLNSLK
Description: as §1, §2

Compound	inhibition of 5′-6FAM probe binding to xMcm10-ID (result in words) [1]	higher cytotoxicity for HCT116 cancer cells in comparison to hTERT RPE-1 cells [2]	selectivity = hTERT RPE-1 IC50/HCT116 IC50 [2]	IC50 [2]	activity at xMcm10-FL (result in words) [3]	Ki [3]	higher affinity for hMcm10-ID over xMcm10-FL ([3]; FP Ki comparison)
Cc1nc(/N=N/c2cc(S(=O)(=O)O)ccc2S(=O)(=O)O)c(COP(=O)(O)O)c(C=O)c1O [iso-PPADS, pyridoxalphosphate-6-azophenyl-2’, 5’-disulfonic acid tetrasodium salt]	weakly and incompletely inhibit; also recorded: little activity	little cell type specificity	1.5	370 ± 30 µM	inactivity	> 1000 µM	
O=C(Nc1cccc(C(=O)Nc2cc(C(=O)Nc3ccc(S(=O)(=O)O)c4cc(S(=O)(=O)O)cc(S(=O)(=O)O)c34)ccc2F)c1)Nc1cccc(C(=O)Nc2cc(C(=O)Nc3ccc(S(=O)(=O)O)c4cc(S(=O)(=O)O)cc(S(=O)(=O)O)c34)ccc2F)c1 [NF157]		approximately 3.5 fold	3.2	38 ± 1 µM		3.4 µM	up to 20 fold
Cc1nc(/N=N/c2ccc(S(=O)(=O)O)cc2S(=O)(=O)O)c(COP(=O)(O)O)c(C=O)c1O [PPADS, pyridoxalphosphate-6-azophenyl-2’, 4’-disulfonic acid tetrasodium salt]	weakly and incompletely inhibit; also recorded: little activity	little cell type specificity	1.3	310 ± 20 µM	inactivity	> 1000 µM	
Cc1ccc(C(=O)Nc2ccc(S(=O)(=O)O)c3cc(S(=O)(=O)O)cc(S(=O)(=O)O)c23)cc1NC(=O)c1cccc(NC(=O)Nc2cccc(C(=O)Nc3cc(C(=O)Nc4ccc(S(=O)(=O)O)c5cc(S(=O)(=O)O)cc(S(=O)(=O)O)c45)ccc3C)c2)c1 [suramin, suramin sodium salt]	active	approximately 3.5 fold	3.7	109 ± 10 µM		3.4 µM	
O=C(Nc1cccc(C(=O)Nc2ccc(S(=O)(=O)O)c3cc(S(=O)(=O)O)cc(S(=O)(=O)O)c23)c1)Nc1cccc(C(=O)Nc2ccc(S(=O)(=O)O)c3cc(S(=O)(=O)O)cc(S(=O)(=O)O)c23)c1 [NF023]						4.4 µM	
